Experimental findings from PMC12475007 (2025) are described below.

What all share (test): fluorescence bead binding assay
Conditions in all cases: binding buffer, room temperature, 1 h; immobilised compound (on beads)

The subject of test [1] is P2 (DNA, aptamer) AGACGTGATGAAGTTCAATCAGGATGCAATGTATTAATGG
The test system of test [2] is P1 (DNA, aptamer) TGCGGAGCGAGGCCCTAGGCGTGGTGGCATTGATTTGTAT
In test [3] the test system is P3 (DNA, aptamer) CCAAGCATCGTCACATCACATTATCACACATTGTCGTCCGT
Test [4] has as its system P4 (DNA, aptamer) TGTGCATTCGTGTGAATTAACTCGTCCACCAGAGCCCGTG
Test [5] has as its system P5 (DNA, aptamer) ACATGTGTAGGCGGTTGGATGCATTATGAGATGGGACATG
Test [6] concerns L4 (DNA, aptamer) TAAGCCCGGCTGAGATAACGGTTGATCCGAAGCTGGTTTT
Test [7] concerns L1 (DNA, aptamer) CAGTCTGCGCCGATTTCTCGCGGATTGCGACGAGGATACG
In test [8] the test system is L3 (DNA, aptamer) CACACATACGGGAGAGGCCCCATAAACTCATGCACGTCCTG
The test system of test [9] is L2 (DNA, aptamer) CCCATCACCACATTGTCACATCACTCGTCACATACAGCCCG

`CC(=O)O[C@H]1C(=O)[C@@]2(C)[C@H]([C@H](OC(=O)c3ccccc3)[C@]3(O)C[C@H](OC(=O)[C@H](O)[C@@H](NC(=O)c4ccccc4)c4ccccc4)C(C)=C1C3(C)C)[C@]1(OC(C)=O)CO[C@@H]1C[C@@H]2O`: the Kd in test [1] amounted to 484.2 nM; in test [2], 139.2 nM; in [3], 38.02 nM; in test [4], 208.1 nM; in [5], 54.07 nM.

Regarding `Nc1nc(=O)c2c([nH]1)NC[C@@H](CNc1ccc(C(=O)N[C@@H](CCC(=O)O)C(=O)O)cc1)N2C=O`, the Kd in [6] is 285.7 nM; in test [7] it was 125.7 nM; in [8] it was 225.7 nM; in test [9], 284.2 nM.
